Key:
[1] = test system: encephalitogenic CD4+ MBP-specific rat TCL (L1402); assay: TNF/LT production by an encephalitogenic MBP-specific rat T-cell line, cytotoxicity bioassay; format: cell-based
Excerpt: To assess the ability of rolipram alone or in various combinations as described to modify autoimmune processes, we investigated its influence on TNF production in vitro by MBP-specific T-cell lines from MS patients and Lewis rats. MBP is a major candidate antigen in MS, and T-cell-mediated immunity is of crucial importance in its pathogenesis. Similar to EAE, MBP-specific T-cells in humans are often cytotoxic, of Th1 type secreting interferon (IFN)-gamma and TNF/LT, and recognize epitopes that are also encephalitogenic in EAE.
Similar results were found using an encephalitogenic CD4+ MBP-specific rat TCL (L1402). […] Previous investigations had shown that inhibition of cAMP PDE by rolipram is stereospecific.
TNF and LT may both be produced by autoactive T-cells. CD4+ cells have been reported to be the major source of TFN in autoimmune insulitis of NOD mice. The cytokine bioassay for TNF/LT detection employed here is sensitive to TNF and LT, but is 200 times more sensitive to the former.

[2] = test system: mouse and rat forebrain tissue; conditions: in vitro and in vivo binding with 3H-rolipram; previous investigations; cited from earlier work
[3] = test system: Experimental Allergic Encephalomyelitis (EAE); assay: Prevention of EAE by Rolipram treatment in marmosets immunized with human brain white matter homogenate; format: in vivo, Callithrix jacchus (common marmoset); conditions: treatment removed on day 60 following immunization; two marmosets
[4] = test system: Experimental Allergic Encephalomyelitis (EAE); assay: Treatment of active (chronic) EAE with Rolipram in a marmoset; format: in vivo, Callithrix jacchus (common marmoset); conditions: escalating doses of Rolipram in DMSO
[5] = test system: EAE after adoptive cell transfer (tEAE); assay: EAE after adoptive cell transfer (tEAE) in Lewis rats; format: in vivo; conditions: n = 5
Description: (§1) The results of our in vivo findings prompted us to perform treatment experiments in EAE after active immunization (aEAE) and adoptive cell transfer (tEAE) in Lewis rats. […] In clinically manifest EAE, treatment was started within 6 hours of the onset of symptoms. […] In tEAE similar effects were observed. […] Treatment after onset of symptoms also lead to a marked reduction in maximum severity (treated group: MMS 0.7 ± 0.10, n = 5; vehicle treated matched controls 2.45 ± 0.56, n = 5, p 0.01).

[6] = test system: EAE after active immunization (aEAE); assay: EAE after active immunization (aEAE) in Lewis rats; format: in vivo; conditions: drug given from the day of active immunization until day 11
Description: as §1
In order to distinguish further between a long-term prophylactic or a temporary suppressive effect, animals received the drug from the day of active immunization until day 11.
Histological analysis was performed on selected animals with aEAE. […] In a study on EAE, induced by myelin oligodendrocyte glycoprotein (MOG)-specific T-cells, the lack of neurological signs was ascribed to a decrease of macrophages and parenchymal inflammation, whereas perivascular inflammation and the synthesis of TNF, IFN-gamma, and interleukin-6 was clearly present. In our system, however, the timely onset of paralysis and the morphologically similar appearance of infiltrates in some of the treated animals argues against such a phenomenon. […]

Molecule COc1ccc(C2CNC(=O)C2)cc1OC1CCCC1 (single isomer, unassigned; (+)) [(+)-rolipram] has an EC50 ([1]; inhibition of TNF/LT production, given alone) of 0.28 µM.

For COc1ccc(C2CNC(=O)C2)cc1OC1CCCC1 (single isomer, unassigned; (-)) [(-)-rolipram], the “times higher affinity than the (+)-enantiomers” value [2] is listed as 15-30 times and the “times more effective than the (+)-enantiomer (inhibition of TNF/LT production)” value [1] is listed as 55 times.

For COc1ccc(C2CNC(=O)C2)cc1OC1CCCC1 (stereo not drawn) [Rolipram, 4-[(3-cyclopentyloxy)-4-methoxyphenyl]-2-pyrrolidinone], the “day on which clinical signs of EAE began following withdrawal of Rolipram” value [3] was 17 days, the “day of MRI improvement following initiating Rolipram treatment” value [4] was 14 days and the “day of marked improvement after initiating treatment” value [4] was 10 days. The “mean maximum score (MMN)” value ([5]; prophylactic treatment, p < 0.01 versus controls) was 0.3 ± 0.11, the “MMS (maximum severity)” value ([5]; treatment after onset of symptoms) was 0.7 ± 0.10 and the “delay of aEAE” value [6] was 3.5 days.

Reference: patent EP1380291A1, “PDE IV inhibitors for treating multiple sclerosis” (Schering Aktiengesellschaft, priority 1994, dated 1995)
